Experimental data published in patent US20170143748A1, “ANTI-TUMOR PHARMACEUTICAL APPLICATION OF PENTACYCLIC TRITERPENE SAPONIN COMPOUNDS OF SZECHUAN MELANDIUM ROOT” (priority 2014, published 2017).
Several values for one entry are separate records, joined by “and”; a condition that tells them apart may be missing. Equal values may be shown once. Read-outs that look alike come from different tables or passages of the source.

Key:
[1] = system: HepG2; experiment: Detection of apoptosis (Annexin V-FITC/PI flow cytometry); format: cell-based, Human; conditions: HepG2, 80 μg/mL, 24 hours
Procedure: (§1) Human resources hepatoma cell line HepG2 was provided by Cancer Hospital, Chinese Academy of Medical Sciences. […] Cells were passaged every 2 or 3 days, and all the experiments were carried out on exponentially growing cells.
Following the incubation of cells in the flasks with drug for 24 hours, cell suspension was harvested with 5×10^5 to 1×10^6 cells/mL, and taken with 1 mL for centrifuging for 10 min at 1000 RPM and 4° C. The supernatant was replaced carefully, added with 1 mL cold phosphate-buffered saline, gently shaken for resuspension, recentrifuged and replaced the supernatant. The cells were resuspended with 200 μl Binding Buffer, added with 10 μl Annexin V-FITC and 5 μl PI, gently shaken and reacted for 15 min at Room temperature, then added with 300 μl Binding Buffer and finally measured immediately with Flow cytometry.

[2] = system: BGC823 human gastric adenocarcinoma; experiment: Anti-BGC823 human gastric adenocarcinoma in BALB/c (nu/nu) nude mice; format: in vivo; conditions: for body weight of BGC823-bearing nude mice / tumor volume of BGC823-bearing nude mice: mg/kg BW: total saponins 1.5, Compound 1, combination 1 & 19, 5-FU 20, Sc; for body weight of BGC823-bearing nude mice: in g (unit assumed)
Procedure: Human resources gastric adenocarcinoma cell line BGC823 was cultured in the same condition as the experiment 4.
The body weight and the tumor volume were measured and recorded weekly. The tumor volume was calculated according to the formula below.
Tumors were departed and weighed. Tumor Index and inhibition rate were calculated as below: […]

[3] = system: HT29 human colon cancer; experiment: Anti-HT29 human colon cancer in BALB/c (nu/nu) nude mice; format: in vivo; conditions: for body weight of HT29-bearing nude mice / tumor volume of HT29-bearing nude mice: mg/kg BW: total saponins 1.5, Compound 1, combination 1 & 19, PTX 20, Sc
Procedure: Human resources Colon cancer cell line HT29 was cultured in the same condition as the experiment 4. […] Mice were randomly assigned into 7 groups: […] The body weight and the tumor volume were measured and recorded weekly. The tumor volume was calculated according to the formula below. […] The tumors were departed and weighed.

[4] = system: HepG2; experiment: Cell cycle detection (PI flow cytometry); format: cell-based, Human
Procedure: as §1
[…] Cells were blown and centrifuged at 1000 RPM for 5 mins. The supernatant was removed and 1-2 mL cold phosphate-buffered saline was added, blown and centrifuged again. The precipitate was blew and then fixed with −20° C. 70% alcohol (1-2 mL), centrifuged again. Alcohol was removed, and the precipitate was washed two times with phosphate-buffered saline, blown for suspension and filtered through 100 mesh gauze filter to flow detection tube, centrifuged at 1000 RPM for 5 mins. The supernatant was abandoned and cells were stained with PI dye (50 μg/mL), vibrated and stained at least 30 mins in darkness, detected with Flow cytometry.

[5] = system: HepG2; experiment: Inhibitory activity and IC50 to HepG2 at different time of treatment (MTT, Example 4); format: cell-based, Human; conditions: for IC50 / inhibition at 5 µg/mL / inhibition at 10 µg/mL / inhibition at 20 µg/mL / inhibition at 40 µg/mL / inhibition at 80 µg/mL: Homo sapiens; for IC50: read-out: IC50 to HepG2
Procedure: as §1
Cells were harvested in good growth status and cell suspension was prepared with 2×10^4 cells/mL, added 100 μL per well of 96-well plates, and cultured for 24 h in the incubator. 100 μL liquid medium with no cell was added per well as blank group.
3 plates were used as parallel test to culture cells at different period.
Before medication, supernatant of each well was removed and fresh 1640 medium was added, 180 μL per well. […] Wells of blank and model groups were added with 0.5% DMSO, 20 μL per well. After finished adding drugs, cells were incubated for 24 and 48 h respectively. At the end of incubation, 20 μL MTT was added per well […]. The supernatant was removed carefully and 150 μL DMSO was added per well. After shaken for 10 mins, the absorbance was read at 490 nm and the inhibition rate was calculated with the formula below.
Inhibition rate=[(ODmodel−ODblank)−(ODdrugs−ODblank)]/(ODmodel−ODblank)×100%
IC50 was calculated with Bliss method.
The MTT experiment was repeated three times.

COC(=O)C1CC(O[C@H]2CC[C@]3(C)[C@H]4C=CC5[C@@H]6CC(C)(C)CC[C@]6(C(=O)OC6OC(C)C(OC(=O)/C=C/c7ccc(C)cc7)C(OC(C)=O)C6OC6CC(C)C(O)C(O)C6O)[C@H](O)C[C@@]5(C)[C@]4(C)CC[C@H]3[C@]2(C)C=O)C(OC2OC(CO)C(O)C(O)C2O)C(OC2OCC(O)C(O)C2O)C1O (stereo partly drawn) [Compound (2), sinocrassuloside VII]
early apoptosis signal ([1]; control 1.5%): 8.5%
number of necrotic cells ([1]; control 2.0%): 6.6%
body weight of BGC823-bearing nude mice ([2]; 0 W): 20.10 ± 1.10
tumor volume of BGC823-bearing nude mice ([2]; 1 W): 796.43 ± 563.35
tumor volume of BGC823-bearing nude mice ([2]; 2 W): 1186.34 ± 625.68
body weight of BGC823-bearing nude mice ([2]; 2 W): 23.00 ± 0.82
tumor volume of BGC823-bearing nude mice ([2]; 3 W): 1654.23 ± 891.57
body weight of BGC823-bearing nude mice ([2]; 3 W): 23.40 ± 1.58
Inhibition rate ([2]; BGC823-bearing nude mice, after 3 weeks, from average tumor mass vs model): 79.63%
body weight of HT29-bearing nude mice ([3]; 0 W): 20.10 ± 1.35
body weight of HT29-bearing nude mice ([3]; 1 W): 22.10 ± 0.90
tumor volume of HT29-bearing nude mice ([3]; 1 W): 639.16 ± 539.16
body weight of HT29-bearing nude mice ([3]; 2 W): 22.90 ± 0.90
tumor volume of HT29-bearing nude mice ([3]; 2 W): 918.54 ± 469.16
body weight of HT29-bearing nude mice ([3]; 3 W): 22.70 ± 1.38
tumor volume of HT29-bearing nude mice ([3]; 3 W): 859.24 ± 691.16
Inhibition rate ([3]; HT29-bearing nude mice, after 3 weeks, from average tumor mass vs model): 54.87%
cells in G0/G1 ([4]; 20 μg/mL, 24 h): 67.26%
cells in G2/M ([4]; 20 μg/mL, 24 h): 15.57%
cells in S ([4]; 20 μg/mL, 24 h): 17.22%
cells in G0/G1 ([4]; 20 μg/mL, 48 h): 60.62%
cells in G2/M ([4]; 20 μg/mL, 48 h): 23.27%
cells in S ([4]; 20 μg/mL, 48 h): 16.11%
cells in G0/G1 ([4]; 20 μg/mL, 72 h): 59.77%
cells in G2/M ([4]; 20 μg/mL, 72 h): 13.96%
cells in S ([4]; 20 μg/mL, 72 h): 26.27%
cells in G0/G1 ([4]; 40 μg/mL, 24 h): 52.52%
cells in G2/M ([4]; 40 μg/mL, 24 h): 29.95%
cells in S ([4]; 40 μg/mL, 24 h): 17.53%
cells in G0/G1 ([4]; 40 μg/mL, 48 h): 55.08%
cells in G2/M ([4]; 40 μg/mL, 48 h): 32.64%
cells in S ([4]; 40 μg/mL, 48 h): 12.29%
cells in G0/G1 ([4]; 40 μg/mL, 72 h): 63.09%
cells in G2/M ([4]; 40 μg/mL, 72 h): 20.44%
cells in S ([4]; 40 μg/mL, 72 h): 16.48%
cells in G0/G1 ([4]; 80 μg/mL, 24 h): 55.19%
cells in G2/M ([4]; 80 μg/mL, 24 h): 21.20%
cells in S ([4]; 80 μg/mL, 24 h): 20.39±2.56% and 20.39%
cells in G0/G1 ([4]; 80 μg/mL, 48 h): 47.28%
cells in G2/M ([4]; 80 μg/mL, 48 h): 21.77%
cells in S ([4]; 80 μg/mL, 48 h): 30.95±5.84% and 30.95%
cells in G0/G1 ([4]; 80 μg/mL, 72 h): 49.28%
cells in G2/M ([4]; 80 μg/mL, 72 h): 10.39%
cells in S ([4]; 80 μg/mL, 72 h): 40.34±12.32% and 40.34%
highest inhibition rate ([5]; HepG2, 20-80 μg/mL): above 99%
IC50 ([5]; HepG2, 24 h): 5.25 µM
inhibition at 5 µg/mL ([5]; HepG2, 24 h, read-out: Inhibition Rate, HepG2, 5 μg/ml, 24 h): 13.4 ± 5.76%
inhibition at 10 µg/mL ([5]; HepG2, 24 h, read-out: Inhibition Rate, HepG2, 10 μg/ml, 24 h): > 80%
inhibition at 20 µg/mL ([5]; HepG2, 24 h, read-out: Inhibition Rate, HepG2, 20 μg/ml, 24 h): 92.7 ± 2.43%
inhibition at 40 µg/mL ([5]; HepG2, 24 h, read-out: Inhibition Rate, HepG2, 40 μg/ml, 24 h): 90 ± 2.41%
inhibition at 80 µg/mL ([5]; HepG2, 24 h, read-out: Inhibition Rate, HepG2, 80 μg/ml, 24 h): 94.6 ± 2.59%
IC50 ([5]; HepG2, 48 h): 4.56 µM
inhibition at 5 µg/mL ([5]; HepG2, 48 h, read-out: Inhibition Rate, HepG2, 5 μg/ml, 48 h): 16.6 ± 8%
inhibition at 10 µg/mL ([5]; HepG2, 48 h, read-out: Inhibition Rate, HepG2, 10 μg/ml, 48 h): > 80%
inhibition at 20 µg/mL ([5]; HepG2, 48 h, read-out: Inhibition Rate, HepG2, 20 μg/ml, 48 h): 99.47 ± 0.56%
inhibition at 40 µg/mL ([5]; HepG2, 48 h, read-out: Inhibition Rate, HepG2, 40 μg/ml, 48 h): 98.4 ± 1%
inhibition at 80 µg/mL ([5]; HepG2, 48 h, read-out: Inhibition Rate, HepG2, 80 μg/ml, 48 h): 98.89 ± 0.68%
